For series [1], the target named is T1, HERG type potassium channel (Homo sapiens, UniProt Q12809).
T1 construct: expressed in transfected cells; host or cells: HEK-293 cells expressing HERG; membrane homogenate
Format: binding. On the procedure: Cell paste of HEK-293 cells expressing the HERG product can be suspended in 10-fold volume of 50 mM Tris buffer adjusted at pH 7.5 at 25° C. with 2 M HCl containing 1 mM MgCl2, 10 mM KCl. The cells were homogenized using a Polytron homogenizer (at the maximum power for 20 seconds) and centrifuged at 48,000 g for 20 min at 4° C. The pellet was resuspended, homogenized and centrifuged once more in the same manner. The resultant supernatant was discarded and the final pellet was resuspended (10-fold volume of 50 mM Tris buffer) and homogenized at the maximum power for 20 sec. The membrane homogenate was aliquoted and stored at −80° C. until use. Analiquot was used for protein concentration determination using a Protein Assay Rapid Kit and ARVO SX plate reader (Wallac). […] Saturation was determined by incubating 20 μL of [^3H]-dofetilide and 160 μl of membrane homogenates (20-30 μg protein per well) for 60 min at room temperature in the absence or presence of 10 μM dofetilide at final concentrations (20 μL) for total or nonspecific binding, respectively. […] Receptor-bound radioactivity was quantified by liquid scintillation counting using Packard LS counter.
For the competition assay, compounds were diluted in 96 well polypropylene plates as 4-point dilutions in semi-log format. […] Receptor-bound radio activity was quantified by counting Wallac MicroBeta plate counter.

Series [2] has as its target T2, human ORL1 receptor (Homo sapiens, UniProt P41146).
T2 construct: purchased PerkinElmer; host or cells: HEK-293 (transfected), membranes
Briefly: ORL1-receptor binding assay. The note with it: [3H]nociceptin, human ORL1 receptor transfected HEK-293 cell membranes; read-out: Ki value with regard to binding affinity for the ORL1 receptor. How it is done: The human ORL1 receptor transfected HEK-293 cell membranes (PerkinElmer) were incubated for 45 min at room temperature with 0.4 nM [^3H]nociceptin, 1.0 mg of wheat germ agglutinin (WGA)-coated SPA beads and various concentrations of test compounds in a final volume of 200 μL of 50 mM HEPES buffer pH 7.4 containing 10 mM MgCl2 and 1 mM EDTA. Non-specific binding (NSB) was determined by the addition of 1 μM unlabeled nociceptin. After the reaction, the assay plate was centrifuged at 1,000 rpm for 1 min and then the radioactivity was measured by WALLAC 1450 MicroBeta Trilux.

The structures appear in SMILES notation. pKi: −log10 of the molar value. Where a name gives a salt, the structure may show the parent alone.

T2 sequence (P41146 whole entry): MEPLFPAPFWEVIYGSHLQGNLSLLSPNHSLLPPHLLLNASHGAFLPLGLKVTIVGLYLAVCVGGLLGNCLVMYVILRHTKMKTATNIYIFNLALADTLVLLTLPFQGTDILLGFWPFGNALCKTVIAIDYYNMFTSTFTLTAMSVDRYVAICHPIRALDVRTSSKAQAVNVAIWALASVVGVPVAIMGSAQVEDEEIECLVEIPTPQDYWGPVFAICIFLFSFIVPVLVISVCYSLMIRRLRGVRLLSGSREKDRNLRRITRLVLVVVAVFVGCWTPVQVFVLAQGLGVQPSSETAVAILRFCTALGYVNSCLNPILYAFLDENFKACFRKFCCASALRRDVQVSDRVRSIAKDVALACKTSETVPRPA
T1 sequence (Q12809 whole entry): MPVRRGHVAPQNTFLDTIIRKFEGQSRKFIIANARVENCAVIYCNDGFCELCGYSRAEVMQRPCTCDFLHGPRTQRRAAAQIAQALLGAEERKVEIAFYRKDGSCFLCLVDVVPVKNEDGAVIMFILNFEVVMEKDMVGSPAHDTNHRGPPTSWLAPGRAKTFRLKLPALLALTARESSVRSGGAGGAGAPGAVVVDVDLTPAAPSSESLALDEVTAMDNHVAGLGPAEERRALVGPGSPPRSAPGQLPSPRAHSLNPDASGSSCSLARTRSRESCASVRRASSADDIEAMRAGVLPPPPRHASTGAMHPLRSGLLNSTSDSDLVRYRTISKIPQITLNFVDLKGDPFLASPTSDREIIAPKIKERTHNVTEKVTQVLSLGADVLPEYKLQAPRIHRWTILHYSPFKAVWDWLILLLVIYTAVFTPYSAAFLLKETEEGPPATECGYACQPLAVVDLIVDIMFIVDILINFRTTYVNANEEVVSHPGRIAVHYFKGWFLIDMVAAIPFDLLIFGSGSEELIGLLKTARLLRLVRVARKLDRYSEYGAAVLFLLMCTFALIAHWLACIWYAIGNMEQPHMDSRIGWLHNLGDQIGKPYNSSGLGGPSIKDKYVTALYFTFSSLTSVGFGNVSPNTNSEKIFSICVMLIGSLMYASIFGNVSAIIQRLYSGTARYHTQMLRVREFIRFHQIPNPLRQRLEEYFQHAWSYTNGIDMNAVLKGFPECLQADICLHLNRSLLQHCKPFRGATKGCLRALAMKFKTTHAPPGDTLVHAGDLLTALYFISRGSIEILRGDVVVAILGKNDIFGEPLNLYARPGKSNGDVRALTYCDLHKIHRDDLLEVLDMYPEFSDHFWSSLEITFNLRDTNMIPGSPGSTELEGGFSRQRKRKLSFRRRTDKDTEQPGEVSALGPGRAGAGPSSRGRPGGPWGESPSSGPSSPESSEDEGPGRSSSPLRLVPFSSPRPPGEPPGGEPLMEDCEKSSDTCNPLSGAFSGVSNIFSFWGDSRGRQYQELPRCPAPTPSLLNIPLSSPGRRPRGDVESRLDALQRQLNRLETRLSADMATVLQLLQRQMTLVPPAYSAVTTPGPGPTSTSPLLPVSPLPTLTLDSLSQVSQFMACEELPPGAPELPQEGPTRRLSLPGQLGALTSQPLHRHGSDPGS

`CN1C(=O)C(CN2CCC3(CCc4ccccc43)CC2)Cc2ccccc21` (stereo not drawn) [Compound (i)]: the “activity in the dofetilide binding assay” value in series [1] was “potent activity”.

On to `CN(C)C(=O)C(CN1CCC2(CC1)OCc1ccc(F)cc12)Cn1cccn1` (single isomer, unassigned; (-)) [Example 102, (−)-3-(6-FLUORO-1′H,3H-SPIRO[2-BENZOFURAN-1,4′-PIPERIDIN]-1′-YL)-N,N-DIMETHYL-2-(1H-PYRAZOL-1-YLMETHYL)P[…], CITRATE], for which the pKi (as a rule, the negative decadic logarithm of the Ki, by convention in mol/L) in series [2] is 7.92. Still for that read-out and setting: in the case of `CN(C)C(=O)C(Cc1cscn1)CN1CCC2(CC1)OCc1ccc(F)cc12` (single isomer, unassigned; (-)) [Example 92, (−)-3-(6-FLUORO-1′H,3H-SPIRO[2-BENZOFURAN-1,4′-PIPERIDIN]-1′-YL)-N,N-DIMETHYL-2-(1,3-THIAZOL-4-YLMETHYL)P[…], CITRATE] it was 8.30.

For the origin of these results see patent US7354925B2, “Alpha aryl or heteroaryl methyl beta piperidino propanamide compounds as ORL1-receptor antagonists” (Pfizer Inc., priority 2004, dated 2008).
